Test system: vascular smooth muscle cell (SMC)
Test: Effect on proliferation of vascular smooth muscle cell (SMC), XTT assay
Format: cell-based
Conditions: 1 uM; XTT at 1, 4 and 7 days; versus untreated control, which grew until 7 days; FIG. 1
Description: As cells used in a cell culture, the vascular smooth muscle cell (SMC) which is a smooth muscle cell, and the human umbilical vein endothelial cell (HUVEC) which is the cell for promoting vascular re-endothelialization were purchased from Korea Cell Line Bank, respectively. The cell culture was performed by culturing the vascular smooth muscle cell (SMC) and the human umbilical vein endothelial cell (HUVEC) in Dulbecoco's modified eagle medium (DMEM) with 10% fetal bovine serum (FBS) under conditions of 37° C. and 5% CO2. […]
5×10^4 of SMC cells cultured according to Example 2 were cultured in the 24-well cell culture plate and then treated with 1 uM of the peptide compound prepared by Example 2 (hereinafter, referred to as ‘EVR-P’). […] After the reaction, 200 ul of the culture medium was transferred from each well to a 96 well cell culture dish, and degree of color change was measured from absorbance at a 450 nm wavelength by a spectroscopy.
5×10^4 of SMC cells cultured according to Example 2 were cultured in the 24-well cell culture plate and then treated with 1 uM of the known Everolimus (EVR)(LC Laboratories). […] After the reaction, 200 ul of the culture medium was transferred from each well to the 96 well cell culture dish, and degree of color change was measured from absorbance at a 450 nm wavelength by a spectroscopy.

With CO[C@H]1C[C@@H]2CC[C@@H](C)[C@@](O)(O2)C(=O)C(=O)N2CCCC[C@H]2C(=O)O[C@H]([C@H](C)C[C@@H]2CC[C@@H](OCCO)[C@H](OC)C2)CC(=O)[C@H](C)/C=C(\C)[C@@H](O)[C@@H](OC)C(=O)[C@H](C)C[C@H](C)/C=C/C=C/C=C/1C [EVR, Everolimus] the “SMC cell proliferation (XTT, absorbance at 450 nm)” value was “cell proliferation was inhibited”.

From patent US9603892B2, “Peptide compound for inhibiting restenosis and promoting re-endothelialization and method for preparing the same” (Chonnam National University Hospital, priority 2014, dated 2017)
